Reference: ChEMBL document CHEMBL1800055, “Orally active MMP-1 sparing α-tetrahydropyranyl and α-piperidinyl sulfone matrix metalloproteinase (MMP) inhibitors with efficacy in cancer, arthritis, and cardiovascular disease” (J Med Chem, 2010)
Activity calls are given as the source filed them. The calls are words filed in the database; no cut-off is given here.

What was measured:
Interstitial collagenase = target: T1, Interstitial collagenase (Homo sapiens, UniProt P03956); type: cell-based, HT-1080
T1 sequence (P03956 whole entry): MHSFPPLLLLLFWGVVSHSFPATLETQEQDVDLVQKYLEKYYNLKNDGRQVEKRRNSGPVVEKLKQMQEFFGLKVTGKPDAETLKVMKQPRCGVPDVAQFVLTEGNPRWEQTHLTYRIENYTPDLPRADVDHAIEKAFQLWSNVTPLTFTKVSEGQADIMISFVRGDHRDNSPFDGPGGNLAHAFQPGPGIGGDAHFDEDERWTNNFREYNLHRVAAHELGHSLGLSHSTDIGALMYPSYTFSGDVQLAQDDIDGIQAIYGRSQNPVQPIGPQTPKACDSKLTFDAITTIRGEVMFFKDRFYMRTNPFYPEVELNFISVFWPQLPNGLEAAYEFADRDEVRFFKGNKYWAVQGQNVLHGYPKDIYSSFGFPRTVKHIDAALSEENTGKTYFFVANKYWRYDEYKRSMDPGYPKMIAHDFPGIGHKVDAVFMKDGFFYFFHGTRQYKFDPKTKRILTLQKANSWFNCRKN

[1] = target: 72 kDa type IV collagenase (Homo sapiens, UniProt P08253)
72 kDa type IV collagenase, sequence (P08253 whole entry): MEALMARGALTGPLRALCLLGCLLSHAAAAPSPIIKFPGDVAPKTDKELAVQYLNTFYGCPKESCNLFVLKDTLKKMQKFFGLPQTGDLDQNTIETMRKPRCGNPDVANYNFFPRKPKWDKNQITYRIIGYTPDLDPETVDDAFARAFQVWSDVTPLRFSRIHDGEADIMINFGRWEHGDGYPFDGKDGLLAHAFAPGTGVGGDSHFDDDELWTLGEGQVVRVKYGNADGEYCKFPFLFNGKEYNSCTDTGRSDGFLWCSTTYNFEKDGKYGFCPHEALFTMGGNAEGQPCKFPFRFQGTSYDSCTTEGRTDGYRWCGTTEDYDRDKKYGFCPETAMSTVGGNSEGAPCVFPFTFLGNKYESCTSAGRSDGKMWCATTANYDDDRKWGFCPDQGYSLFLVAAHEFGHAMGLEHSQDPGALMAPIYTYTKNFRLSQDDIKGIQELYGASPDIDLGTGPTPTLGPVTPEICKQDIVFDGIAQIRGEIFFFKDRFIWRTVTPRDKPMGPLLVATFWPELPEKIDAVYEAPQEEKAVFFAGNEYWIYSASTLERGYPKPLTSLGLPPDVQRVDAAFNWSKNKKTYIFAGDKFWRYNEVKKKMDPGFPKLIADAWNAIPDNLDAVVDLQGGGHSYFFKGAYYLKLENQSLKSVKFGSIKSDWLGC

Stromelysin-1 = Stromelysin-1 (Homo sapiens, UniProt P08254)
Stromelysin-1, sequence (P08254 whole entry): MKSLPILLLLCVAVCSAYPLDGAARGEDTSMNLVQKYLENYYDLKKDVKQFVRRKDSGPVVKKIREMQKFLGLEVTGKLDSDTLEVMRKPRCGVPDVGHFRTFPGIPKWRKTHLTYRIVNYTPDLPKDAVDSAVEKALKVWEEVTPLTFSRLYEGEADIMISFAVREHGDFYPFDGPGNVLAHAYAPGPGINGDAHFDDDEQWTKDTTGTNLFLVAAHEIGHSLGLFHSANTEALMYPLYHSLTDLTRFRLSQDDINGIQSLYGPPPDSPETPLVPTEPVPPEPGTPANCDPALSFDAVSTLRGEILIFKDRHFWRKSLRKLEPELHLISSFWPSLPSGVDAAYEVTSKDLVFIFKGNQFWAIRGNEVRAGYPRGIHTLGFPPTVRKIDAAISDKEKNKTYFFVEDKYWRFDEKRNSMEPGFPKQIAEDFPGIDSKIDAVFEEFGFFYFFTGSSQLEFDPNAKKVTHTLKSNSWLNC

Matrilysin = target: T2, Matrilysin (Homo sapiens, UniProt P09237)
T2 sequence (P09237 whole entry): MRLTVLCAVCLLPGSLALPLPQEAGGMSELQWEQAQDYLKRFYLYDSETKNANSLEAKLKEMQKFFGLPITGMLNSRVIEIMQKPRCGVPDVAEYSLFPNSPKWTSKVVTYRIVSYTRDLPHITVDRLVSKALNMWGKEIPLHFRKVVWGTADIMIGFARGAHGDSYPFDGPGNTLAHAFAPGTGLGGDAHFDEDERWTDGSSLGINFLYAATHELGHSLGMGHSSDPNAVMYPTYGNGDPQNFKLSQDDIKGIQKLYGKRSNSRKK

Neutrophil collagenase = Neutrophil collagenase (Homo sapiens, UniProt P22894)
Neutrophil collagenase, sequence (P22894 whole entry): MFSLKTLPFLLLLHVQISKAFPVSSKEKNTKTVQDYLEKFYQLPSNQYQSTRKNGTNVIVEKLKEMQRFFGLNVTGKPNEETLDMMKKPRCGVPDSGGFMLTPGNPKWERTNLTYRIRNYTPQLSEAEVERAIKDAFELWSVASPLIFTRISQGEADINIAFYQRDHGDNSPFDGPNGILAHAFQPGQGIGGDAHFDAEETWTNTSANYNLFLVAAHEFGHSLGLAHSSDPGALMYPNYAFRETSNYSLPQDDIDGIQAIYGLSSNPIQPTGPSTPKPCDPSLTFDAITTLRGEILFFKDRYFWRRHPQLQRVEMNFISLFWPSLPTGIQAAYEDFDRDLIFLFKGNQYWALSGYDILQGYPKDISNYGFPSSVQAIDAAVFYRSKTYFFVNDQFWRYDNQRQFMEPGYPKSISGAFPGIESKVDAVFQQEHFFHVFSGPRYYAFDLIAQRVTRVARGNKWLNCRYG

[2] = Cmax in rat at 20 mg/kg, po; type: ADME, organism-based; design: dose 20 mg/kg, route oral; conditions: in vivo
Rattus norvegicus [3] = test: Plasma concentration in rat at 20 mg/kg, po; type: ADME, organism-based; design: dose 20 mg/kg, route oral; conditions: in vivo
[4] = Half life in rat at 20 mg/kg, po; type: ADME, organism-based; design: dose 20 mg/kg, route oral; conditions: in vivo
[5] = Oral bioavailability in rat at 20 mg/kg; type: ADME, organism-based; conditions: in vivo
PC-3 [6] = test: Antitumor activity against human PC3 cells xenografted in po dosed BALB/c nu/nu mouse assessed as tumor growth inhibition administered BID measured on 25 to 30 days; type: functional, organism-based
PC-3 [7] = test: Antitumor activity against human PC3 cells xenografted in BALB/c nu/nu mouse assessed as tumor growth inhibition at 100 mg/kg, po BID measured on 25 to 30 days relative to control; type: functional
PC-3 [8] = test: Antitumor activity against human PC3 cells xenografted in BALB/c nu/nu mouse assessed as tumor growth inhibition at 200 mg/kg, po BID measured on 25 to 30 days relative to control; type: functional
PC-3 [9] = test: Antitumor activity against human PC3 cells xenografted in BALB/c nu/nu mouse assessed as tumor growth inhibition at 25 mg/kg, po BID for 30 days measured on 25 to 30 days relative to control; type: functional
MX1 = test: Antitumor activity against human MX1 cells xenografted in cyclophosphamide-treated nude mouse adjuvant model assessed as increase in mouse survival time at 6 to 50 mg/kg, po BID measured up to 90 days; type: functional, organism-based
Cartilage tissue = test: Ex vivo inhibition of IL-1 and oncostatin M-induced bovine nasal cartilage degradation assessed as release of hydroxproline measured up to 16 days by mass spectrometry; type: functional, tissue-based; conditions: Bos taurus, 384 h
Rattus norvegicus [10] = test: Cardioprotective activity in rat myocardial infarction model assessed inhibition of left ventricular dilation at 50 mg/kg, po qd for 4 weeks (reference value: 0.69 +/- 0.02 mL); type: functional, Heart left ventricle
Mus musculus [11] = test: Toxicity in mouse assessed as mortality administered bid for 90 days; type: organism-based; conditions: in vivo, 2160 h
Collagenase 3 = Collagenase 3 (Homo sapiens, UniProt P45452)
[12] = Cmax in rat at 10 mg/mL, iv and po; type: ADME, organism-based; conditions: in vivo
Rattus norvegicus [13] = test: Plasma concentration in rat at 10 mg/mL, iv and po; type: ADME, organism-based; conditions: in vivo
[14] = Half life in rat at 10 mg/mL, iv and po; type: ADME, organism-based; conditions: in vivo
[15] = Oral bioavailability in rat at 10 mg/mL; type: ADME, organism-based; conditions: in vivo
Rattus norvegicus [16] = test: Cardioprotective activity in rat myocardial infarction model assessed inhibition of left ventricular dilation at 10 mg/kg, po qd for 4 weeks (reference value: 0.59 +/- 0.02 mL); type: functional, Heart left ventricle
Mus musculus [17] = test: Antiangiogenic activity in cornea of mouse bFGF-induced corneal micropocket model assessed as inhibition of angiogenesis at 5 mg/kg administered as BID; type: functional
[18] = Tmax in male mouse at 20 mg/kg, po after 24 hrs; type: ADME, organism-based; design: dose 20 mg/kg, route oral; conditions: in vivo
[19] = Tmax in male rat at 20 mg/kg, po after 24 hrs; type: ADME, organism-based; design: dose 20 mg/kg, route oral; conditions: in vivo
[20] = Tmax in male dog at 20 mg/kg, po after 24 hrs; type: ADME, organism-based, Canis lupus familiaris; design: dose 20 mg/kg, route oral; conditions: in vivo
[21] = Tmax in cynomolgus monkey at 20 mg/kg, po after 24 hrs; type: ADME, organism-based, Macaca fascicularis; design: dose 20 mg/kg, route oral; conditions: in vivo
[22] = Cmax in male rat at 20 mg/kg, po after 24 hrs; type: ADME, organism-based; design: dose 20 mg/kg, route oral; conditions: in vivo
[23] = Cmax in male dog at 20 mg/kg, po after 24 hrs; type: ADME, organism-based, Canis lupus familiaris; design: dose 20 mg/kg, route oral; conditions: in vivo
[24] = Cmax in male mouse at 20 mg/kg, po after 24 hrs; type: ADME, organism-based; design: dose 20 mg/kg, route oral; conditions: in vivo
[25] = Cmax in cynomolgus monkey at 20 mg/kg, po after 24 hrs; type: ADME, organism-based, Macaca fascicularis; design: dose 20 mg/kg, route oral; conditions: in vivo
[26] = AUC (0 to infinity) in male mouse at 20 mg/kg, po after 24 hrs; type: ADME, organism-based; design: time infinity, dose 20 mg/kg, route oral; conditions: plasma
[27] = AUC (0 to infinity) in male rat at 20 mg/kg, po after 24 hrs; type: ADME, organism-based; design: time infinity, dose 20 mg/kg, route oral; conditions: plasma
[28] = AUC (0 to infinity) in male dog at 20 mg/kg, po after 24 hrs; type: ADME, organism-based, Canis lupus familiaris; design: time infinity, dose 20 mg/kg, route oral; conditions: plasma
[29] = AUC (0 to infinity) in cynomolgus monkey at 20 mg/kg, po after 24 hrs; type: ADME, organism-based, Macaca fascicularis; design: dose 20 mg/kg, route oral, time infinity; conditions: plasma
[30] = Oral bioavailability in male mouse at 20 mg/kg after 24 hrs; type: ADME, organism-based; conditions: in vivo
[31] = Oral bioavailability in male rat at 20 mg/kg after 24 hrs; type: ADME, organism-based; conditions: in vivo
[32] = Oral bioavailability in male dog at 20 mg/kg after 24 hrs; type: ADME, organism-based, Canis lupus familiaris; conditions: in vivo
[33] = Oral bioavailability in cynomolgus monkey at 20 mg/kg after 24 hrs; type: ADME, organism-based, Macaca fascicularis; conditions: in vivo
[34] = Tmax in female mouse at 20 mg/kg, po after 24 hrs; type: ADME, organism-based; design: dose 20 mg/kg, route oral; conditions: in vivo
[35] = Tmax in female rat at 20 mg/kg, po after 24 hrs; type: ADME, organism-based; design: dose 20 mg/kg, route oral; conditions: in vivo
[36] = Tmax in female dog at 20 mg/kg, po after 24 hrs; type: ADME, organism-based, Canis lupus familiaris; design: dose 20 mg/kg, route oral; conditions: in vivo
[37] = Cmax in female rat at 20 mg/kg, po after 24 hrs; type: ADME, organism-based; design: dose 20 mg/kg, route oral; conditions: in vivo
[38] = Cmax in female dog at 20 mg/kg, po after 24 hrs; type: ADME, organism-based, Canis lupus familiaris; design: dose 20 mg/kg, route oral; conditions: in vivo
[39] = Cmax in female mouse at 20 mg/kg, po after 24 hrs; type: ADME, organism-based; design: dose 20 mg/kg, route oral; conditions: in vivo
[40] = AUC (0 to infinity) in female mouse at 20 mg/kg, po after 24 hrs; type: ADME, organism-based; design: time infinity, dose 20 mg/kg, route oral; conditions: plasma
[41] = AUC (0 to infinity) in female rat at 20 mg/kg, po after 24 hrs; type: ADME, organism-based; design: time infinity, dose 20 mg/kg, route oral; conditions: plasma
[42] = AUC (0 to infinity) in female dog at 20 mg/kg, po after 24 hrs; type: ADME, organism-based, Canis lupus familiaris; design: time infinity, dose 20 mg/kg, route oral; conditions: plasma
[43] = Oral bioavailability in female mouse at 20 mg/kg after 24 hrs; type: ADME, organism-based; conditions: in vivo
[44] = Oral bioavailability in female rat at 20 mg/kg after 24 hrs; type: ADME, organism-based; conditions: in vivo
[45] = Oral bioavailability in female dog at 20 mg/kg after 24 hrs; type: ADME, organism-based, Canis lupus familiaris; conditions: in vivo

`O=C(NO)C1(S(=O)(=O)c2ccc(Oc3ccc(OC(F)(F)F)cc3)cc2)CCN(C2CC2)CC1` gave an IC50 (Interstitial collagenase) of 4000 nM, an IC50 [1] of under 0.1 nM and an IC50 (Stromelysin-1) of 22 nM. For the same compound, the IC50 (Matrilysin) was 7000 nM, the IC50 (Neutrophil collagenase) was 1.2 nM and the Cmax [2] was 4160 ng/mL. The Cp (Rattus norvegicus [3]) was 440 ng/mL, the half-life [4] was 2.85 h and the bioavailability [5] was 23%. The inhibition (PC-3 [6]) was “Dose-dependent effect”, the inhibition in vivo at 100 mg/kg (PC-3 [7]) was 65% and the inhibition in vivo at 200 mg/kg (PC-3 [8]) was 65%. For the same compound, the inhibition in vivo at 25 mg/kg (PC-3 [9]) was 49%, the Activity (MX1) was “Active” and the IC50 (Cartilage tissue) was 10 nM. The Activity (Rattus norvegicus [10]) was 0.62 mL and the Activity (Mus musculus [11]) was “Non-toxic”.
`O=C(NO)C1(S(=O)(=O)c2ccc(Oc3ccc(C(F)(F)F)cc3)cc2)CCOCC1` gave an IC50 (Interstitial collagenase) of 8000 nM, an IC50 [1] of 0.1 nM and an IC50 (Stromelysin-1) of 22 nM. It also gave an IC50 (Matrilysin) of over 10000 nM, an IC50 (Neutrophil collagenase) of 9.4 nM and an IC50 (Collagenase 3) of 0.4 nM. For the same compound, the Cmax [12] was 4300 ng/mL, the Cp (Rattus norvegicus [13]) was 1154 ng/mL and the half-life [14] was 2.68 h. For the same compound, the bioavailability [15] was 33% and the IC50 (Cartilage tissue) was 70 nM.
`COCCN1CCC(C(=O)NO)(S(=O)(=O)c2ccc(Oc3ccc(OC(F)(F)F)cc3)cc2)CC1` gave an IC50 (Interstitial collagenase) of over 10000 nM, an IC50 [1] of under 0.1 nM and an IC50 (Stromelysin-1) of 28.7 nM. The IC50 (Matrilysin) was 7000 nM, the IC50 (Neutrophil collagenase) was 1.7 nM and the IC50 (Collagenase 3) was under 0.1 nM. It also gave a Cmax [2] of 29600 ng/mL, a Cp (Rattus norvegicus [3]) of 20521 ng/mL and a half-life [4] of 2.94 h. The bioavailability [5] was 67.9%, the inhibition (PC-3 [6]) was “Dose-dependent effect” and the Activity (Rattus norvegicus [16]) was 0.51 mL. For the same compound, the inhibition in vivo at 5 mg/kg (Mus musculus [17]) was 60%, the Tmax [18] was 0.167 h and the Tmax [19] was 2 h. It also gave a Tmax [20] of 0.833 h, a Tmax [21] of 1.67 h and a Cmax [22] of 42400 ng/mL. It also gave a Cmax [23] of 60600 ng/mL, a Cmax [24] of 26600 ng/mL and a Cmax [25] of 37100 ng/mL. The AUC(0-inf) [26] was 29.3 µg·h/mL, the AUC(0-inf) [27] was 273 µg·h/mL and the AUC(0-inf) [28] was 228 µg·h/mL. The AUC(0-inf) [29] was 191 µg·h/mL, the bioavailability [30] was 51.7% and the bioavailability [31] was 66.6%. The bioavailability [32] was 64%, the bioavailability [33] was 53.8% and the Tmax [34] was 0.167 h. The Tmax [35] was 4 h, the Tmax [36] was 0.5 h and the Cmax [37] was 69800 ng/mL. It also gave a Cmax [38] of 68900 ng/mL, a Cmax [39] of 41000 ng/mL and an AUC(0-inf) [40] of 36.1 µg·h/mL. It also gave an AUC(0-inf) [41] of 668 µg·h/mL, an AUC(0-inf) [42] of 156 µg·h/mL and a bioavailability [43] of 80.8%. For the same compound, the bioavailability [44] was 82.2% and the bioavailability [45] was 69.2%.
